Test [1] concerns the target Glyceraldehyde-3-phosphate dehydrogenase (Homo sapiens, UniProt P04406).
Test [2] deals with T1, Alkaline phosphatase, tissue-nonspecific isozyme (Homo sapiens, UniProt P05186).
T1 sequence (P05186 whole entry): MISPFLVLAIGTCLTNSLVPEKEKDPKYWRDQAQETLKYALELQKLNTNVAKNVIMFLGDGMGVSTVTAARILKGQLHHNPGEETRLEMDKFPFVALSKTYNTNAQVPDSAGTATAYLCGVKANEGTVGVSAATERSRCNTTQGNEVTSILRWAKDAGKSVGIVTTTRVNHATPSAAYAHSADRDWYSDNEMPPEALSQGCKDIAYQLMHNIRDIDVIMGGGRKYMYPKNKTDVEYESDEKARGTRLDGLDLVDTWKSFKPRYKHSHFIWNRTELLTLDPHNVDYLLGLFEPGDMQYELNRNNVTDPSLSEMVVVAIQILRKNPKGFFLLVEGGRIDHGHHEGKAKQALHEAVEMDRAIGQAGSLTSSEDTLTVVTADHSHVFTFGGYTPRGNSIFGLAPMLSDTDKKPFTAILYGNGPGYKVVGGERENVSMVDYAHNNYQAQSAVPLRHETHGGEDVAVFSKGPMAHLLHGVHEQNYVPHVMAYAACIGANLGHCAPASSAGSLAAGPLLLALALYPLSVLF
Nature of the test: potency against alkaline phosphatase TNAP – biochemical, luminescent, dose response, SAR follow-up (AID 1056).

Test [3] has as its system HEK293. Nature of the test: inhibition of NOD1-driven NF-kB reporter – cell-based, luminescence, uHTS, primary screen (AID 1578). The format is functional. As to conditions: Homo sapiens.
Test [4] concerns HEK293. Nature of the test: cells. Format: functional, cell-based. Particulars: Homo sapiens.
Test [5] relates to HEK293. Nature of the test: cells. Format: functional, cell-based. Particulars: Homo sapiens. The source holds these as a separate data set.
For test [6], the target named is Nucleotide-binding oligomerization domain-containing protein 2 (Homo sapiens, UniProt Q9HC29). Kind of test: inhibition of NOD2-driven NF-kB reporter – cell-based, luminescence, uHTS, HEK293 (AID 1566). The format is functional.
Test [7] has as its system HEK293. Kind of test: NOD2 signaling inhibitors in MDP-stimulated cells, cell-based, uHTS, luminescence (AID 2001). The format is functional. As to conditions: Homo sapiens.
Test [8] relates to HEK293. Nature of the test: cells. The format is functional, cell-based. Particulars: Homo sapiens. The source holds these as a separate data set.
Test [9] has as its system BJ. Nature of the test: BJ-TERT fibroblast viability loss – cell-based, RAS-independent, luminescence, dose response (AID 1933). The format is functional. As to conditions: Homo sapiens.
The subject of test [10] is BJ. Nature of the test: cells. Format: functional, cell-based. As to conditions: Homo sapiens.
The test system of test [11] is BJ. Kind of test: BJ-TERT-LT-ST fibroblast viability loss – cell-based, RAS-independent, luminescence, dose response (AID 1935).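 Also: BJ fibroblasts immortalized with TERT plus LT and ST oncogenes.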 Format: functional. As to conditions: Homo sapiens.
A short description of test [12]: DRD fibroblast viability loss – cell-based, non-viral oncogenic, luminescence, dose response (AID 1934). Format: functional. As to conditions: Homo sapiens.
The target of test [13] is T2, Microphthalmia-associated transcription factor (Homo sapiens, UniProt O75030).
T2 sequence (O75030 whole entry): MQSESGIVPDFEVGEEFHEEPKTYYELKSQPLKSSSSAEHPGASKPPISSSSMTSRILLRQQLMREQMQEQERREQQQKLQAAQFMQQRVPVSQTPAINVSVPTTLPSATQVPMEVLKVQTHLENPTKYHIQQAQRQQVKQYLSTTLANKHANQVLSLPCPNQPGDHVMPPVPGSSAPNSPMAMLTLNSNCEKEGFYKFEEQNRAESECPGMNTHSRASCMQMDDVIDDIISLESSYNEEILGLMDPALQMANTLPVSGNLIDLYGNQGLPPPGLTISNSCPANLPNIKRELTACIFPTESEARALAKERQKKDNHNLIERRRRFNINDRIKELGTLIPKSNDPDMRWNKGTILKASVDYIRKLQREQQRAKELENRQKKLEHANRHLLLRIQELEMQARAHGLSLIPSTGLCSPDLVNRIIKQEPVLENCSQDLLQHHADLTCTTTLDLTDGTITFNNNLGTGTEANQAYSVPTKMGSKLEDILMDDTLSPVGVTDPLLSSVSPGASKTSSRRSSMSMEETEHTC
Nature of the test: reducers of TRPM1 reporter luminescence, concentration series – cell-based, SK-MEL-5, cherry-picked, set 3, MITF inhibitor project, dose response (AID 493073).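 Also: SK-MEL-5 melanoma cells with luciferase driven by the MITF target TRPM1 promoter.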 Format: functional.

The target of test [14] is T3, Replicative DNA helicase DnaB (Mycobacterium tuberculosis, UniProt P9WMR3).
T3 sequence (P9WMR3 whole entry): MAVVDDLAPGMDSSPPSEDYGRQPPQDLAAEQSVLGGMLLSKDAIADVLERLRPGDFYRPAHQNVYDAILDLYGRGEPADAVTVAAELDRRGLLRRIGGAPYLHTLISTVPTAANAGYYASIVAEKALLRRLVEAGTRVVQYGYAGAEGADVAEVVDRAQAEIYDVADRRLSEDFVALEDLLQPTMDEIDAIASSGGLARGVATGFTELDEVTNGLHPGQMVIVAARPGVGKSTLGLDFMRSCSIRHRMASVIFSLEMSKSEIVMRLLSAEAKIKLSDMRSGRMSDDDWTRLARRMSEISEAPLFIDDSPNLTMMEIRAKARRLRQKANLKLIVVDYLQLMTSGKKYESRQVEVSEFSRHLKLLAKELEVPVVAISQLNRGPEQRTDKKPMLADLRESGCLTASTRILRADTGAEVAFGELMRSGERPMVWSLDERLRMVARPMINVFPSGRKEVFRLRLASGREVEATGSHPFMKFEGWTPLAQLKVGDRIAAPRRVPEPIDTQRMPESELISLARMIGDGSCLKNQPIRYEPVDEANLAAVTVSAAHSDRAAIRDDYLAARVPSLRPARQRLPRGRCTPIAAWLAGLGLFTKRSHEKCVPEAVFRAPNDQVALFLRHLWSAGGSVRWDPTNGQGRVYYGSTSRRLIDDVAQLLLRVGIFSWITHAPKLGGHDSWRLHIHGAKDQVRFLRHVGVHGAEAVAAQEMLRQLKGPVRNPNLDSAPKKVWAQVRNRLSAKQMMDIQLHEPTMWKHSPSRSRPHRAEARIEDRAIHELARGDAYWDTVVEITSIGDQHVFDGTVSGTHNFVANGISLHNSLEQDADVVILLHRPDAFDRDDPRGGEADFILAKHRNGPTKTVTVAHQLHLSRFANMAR
Kind of test: DnaB intein splicing inhibitors, dose response, biochemical, cell-free fluorescence (AID 449749). Format: functional.

The target in another test is T4, Protein RecA (Mycobacterium tuberculosis, UniProt P9WHJ3).
T4 sequence (P9WHJ3 whole entry): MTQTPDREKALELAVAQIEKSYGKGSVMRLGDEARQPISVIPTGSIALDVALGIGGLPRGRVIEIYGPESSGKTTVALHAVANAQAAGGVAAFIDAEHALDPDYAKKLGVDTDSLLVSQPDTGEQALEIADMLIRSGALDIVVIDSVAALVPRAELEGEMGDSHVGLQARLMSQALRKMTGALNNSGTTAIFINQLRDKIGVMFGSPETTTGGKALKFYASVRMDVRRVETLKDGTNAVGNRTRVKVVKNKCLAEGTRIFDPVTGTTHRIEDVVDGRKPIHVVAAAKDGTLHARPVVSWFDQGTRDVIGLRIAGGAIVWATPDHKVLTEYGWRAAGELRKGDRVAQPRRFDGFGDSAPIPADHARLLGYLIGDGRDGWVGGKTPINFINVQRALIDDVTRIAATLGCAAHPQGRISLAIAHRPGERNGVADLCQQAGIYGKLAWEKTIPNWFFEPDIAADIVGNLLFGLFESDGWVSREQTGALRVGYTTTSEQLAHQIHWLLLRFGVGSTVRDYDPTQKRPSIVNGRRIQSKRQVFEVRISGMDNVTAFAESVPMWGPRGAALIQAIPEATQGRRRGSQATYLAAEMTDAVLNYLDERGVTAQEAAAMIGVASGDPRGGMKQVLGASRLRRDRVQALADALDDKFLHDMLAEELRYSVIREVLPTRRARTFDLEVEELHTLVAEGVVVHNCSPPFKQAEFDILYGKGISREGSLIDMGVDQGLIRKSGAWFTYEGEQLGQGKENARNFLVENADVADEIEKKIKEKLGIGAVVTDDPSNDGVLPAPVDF
Kind of test: Fluorescence Cell-Free Homogeneous Dose Retest to Identify Inhibitors of RecA-Intein Splicing Activity. [Related pubchem assays (depositor defined):AID2097, AID2223, AID489010, AID492950]. The format is functional.

Activity calls are given as the source filed them. A value given as a limit tells only on which side of the number the result lay.

IC50, EC50 and AC50 data for three compounds are collected here from ChEMBL document CHEMBL1201862, “PubChem BioAssay data set” (2004).

Usually IC50 stands for the concentration that gives 50% inhibition. What is called EC50 is the concentration that produces a half-maximal response. The AC50 is the concentration giving half of the maximal activity seen.

Sequence of Nucleotide-binding oligomerization domain-containing protein 2 (Q9HC29 whole entry, the tested form may be a part): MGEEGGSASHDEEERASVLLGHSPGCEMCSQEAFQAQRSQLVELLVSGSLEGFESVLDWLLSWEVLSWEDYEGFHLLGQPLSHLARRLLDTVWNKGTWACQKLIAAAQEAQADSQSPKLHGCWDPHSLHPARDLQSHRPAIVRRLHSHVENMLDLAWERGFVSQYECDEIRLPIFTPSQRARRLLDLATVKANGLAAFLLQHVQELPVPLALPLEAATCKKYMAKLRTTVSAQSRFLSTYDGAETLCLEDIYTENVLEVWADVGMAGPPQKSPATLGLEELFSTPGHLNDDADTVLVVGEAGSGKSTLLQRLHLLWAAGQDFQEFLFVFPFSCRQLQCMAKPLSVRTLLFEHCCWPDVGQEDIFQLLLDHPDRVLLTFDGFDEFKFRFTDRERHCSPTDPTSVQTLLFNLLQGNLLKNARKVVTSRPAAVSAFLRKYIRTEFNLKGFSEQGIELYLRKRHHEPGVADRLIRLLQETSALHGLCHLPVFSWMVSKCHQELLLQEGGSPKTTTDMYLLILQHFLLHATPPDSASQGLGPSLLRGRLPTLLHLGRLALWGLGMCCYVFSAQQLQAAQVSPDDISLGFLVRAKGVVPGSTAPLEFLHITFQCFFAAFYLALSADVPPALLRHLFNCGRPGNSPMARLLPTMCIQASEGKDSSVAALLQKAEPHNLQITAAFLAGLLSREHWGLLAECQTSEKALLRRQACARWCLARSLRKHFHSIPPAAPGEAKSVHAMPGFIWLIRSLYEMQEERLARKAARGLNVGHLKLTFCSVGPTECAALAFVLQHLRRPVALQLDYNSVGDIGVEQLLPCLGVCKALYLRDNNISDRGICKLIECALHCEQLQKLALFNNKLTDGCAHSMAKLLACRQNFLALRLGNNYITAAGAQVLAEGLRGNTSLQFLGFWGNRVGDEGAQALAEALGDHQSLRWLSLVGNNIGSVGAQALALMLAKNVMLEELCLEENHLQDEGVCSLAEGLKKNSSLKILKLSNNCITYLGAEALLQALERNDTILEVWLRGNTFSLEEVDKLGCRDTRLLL
Sequence of Glyceraldehyde-3-phosphate dehydrogenase (P04406 whole entry): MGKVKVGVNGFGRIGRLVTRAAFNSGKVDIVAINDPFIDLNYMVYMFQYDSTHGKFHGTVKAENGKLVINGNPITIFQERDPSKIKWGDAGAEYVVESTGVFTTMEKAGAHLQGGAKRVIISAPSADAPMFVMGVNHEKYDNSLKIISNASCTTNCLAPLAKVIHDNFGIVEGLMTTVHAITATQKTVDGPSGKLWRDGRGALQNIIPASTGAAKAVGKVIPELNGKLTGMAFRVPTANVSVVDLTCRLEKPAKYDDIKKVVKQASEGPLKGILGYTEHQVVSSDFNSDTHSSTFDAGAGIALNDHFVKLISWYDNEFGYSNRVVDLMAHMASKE

With `COc1ccc(C(C)C)cc1S(=O)(=O)Nc1cccnc1`, the 50% inhibitory concentration (IC50) in [1] was > 100 µM (not active); in test [2], > 100 µM (inactive).
Consider `COCCN(Cc1ccccc1)C(=O)c1cc(-c2ccc(OC)c(OC)c2)nc2ccccc12`, for which the EC50 (in the test on HEK293 [3]; in test [6]) was > 20 µM (inactive) in each case. Besides, the IC50 in the test with HEK293 [4] was > 20 µM (inactive); in the test with HEK293 [5] it was > 20 µM (inactive); with HEK293 [7], > 20 µM (inactive); in the test with HEK293 [8], 16.3 µM (active).
Take `O=C(CCl)Nc1cccc(S(=O)(=O)N2CCCCCC2)c1`: the concentration for a half-maximal effect (EC50) in the test on HEK293 [3] is 10.1 µM (active); in the test on BJ [9] it was 4.64 µM (inconclusive); in the test with BJ [10], 22 µM (active); in test [6], 19.6 µM (active); in the test on BJ [11], 10.7 µM (active); in [12] it was 9.38 µM (active). The EC50 at Protein RecA is 22.6 µM (active). In addition, the IC50 with HEK293 [4] was 4.83 µM (active); in the test with HEK293 [5], > 20 µM (inactive); in the test with HEK293 [7], 8.19 µM (active); in the test with HEK293 [8] it was > 20 µM (inactive). For the same compound, the concentration at half-maximal activity (AC50) in test [13] was 11.8 µM (active); in test [14] it was 23.5 µM (active).
